From paper PMC10913065, “Rapid sp^3-Enriched Scaffold Generation via a Selective Aziridine Amide Ring-Opening Reaction” (The Journal of Organic Chemistry, 2024)
≈ marks a conversion by molar mass, not a printed value.

Assay: Kinetic solubility assay (adapted shake flask method, McIlvaine buffer)
Type: physicochemical
Conditions: pH 6.8, aqueous buffer, kinetic from dmso stock
Description: 10. Kinetic Solubility assay
Kinetic Solubility assay protocol
Adapted standard shake flask method to run in 1 mL 96-deep-well plates at a concentration of 100 µM in McIlvaine Buffer at pH values of 6.8 from 10 mM DMSO stock solutions.
Compounds are prepared in triplicate and incubated in buffer at room temperature for 18 hours while shaking at 700 RPM. After incubation the 96-deep-well plate is centrifuged at 5000 g for 10 minutes, half of the volume is transferred to another deep well plate and centrifuged again at 5000 g for 10 minutes. 200 µL are transferred from each well to a Greiner Bio-one 200 µL 96-well V-bottom plate and sealed. A six-point calibration curve is prepared for each compound ranging from 100 µM down to 0.5 µM. All samples are analyzed via UV-UHPLC on an Agilent 1290 Infinity (binary pump, auto-sampler, column compartment at 55 °C, and PDA) with a Phenomenex Kinetex EVO C18, 50 x 1 mm, 1.7 µm, 100 Å column, at 0.5 mL. Injections of 3 µL are analyzed with gradient elution using Milli-Q water with 0.05% trifluoroacetic acid (A1) and acetonitrile with 0.05% trifluoroacetic acid (B1) from 95:5 A1/B1 to 5:95 A1/B1 over 1.3 minutes with a 0.2 minute hold at 5:95 A1/B1. Wavelengths at 215 nm and 254 nm are monitored, peaks are integrated, and the peak area and peak height are used with linear regression analysis from the calibration curves to determine the solubility values.6 Kinetic Solubility assay data
A kinetic solubility for d, e, f, and g was calculated in the following Table.
Compound Kinetic solubility (µM, pH=6.8)
Table S7. Kinetic solubility for representative compounds.

[1] = pH=6.8, McIlvaine Buffer, 100 µM from 10 mM DMSO stock, room temperature, 18 hours, triplicate

## Cc1ccccc1Oc1ccccc1NC(=O)c1ccccc1 [d, reference compound]
At neutral pH
  solubility kinetic at 18 h: 5.74 µM (≈ 1.74 µg/mL)

## Cc1ccccc1O[C@H]1CCNC[C@@H]1NC(=O)c1ccccc1 [e]
At neutral pH
  solubility kinetic at 18 h: 79.1 µM (≈ 24.5 µg/mL)
[1]
  solubility kinetic at 18 h: 90.67 ± 0.32 µM (≈ 28.1 µg/mL)

## Cc1ccccc1O[C@H]1CNC[C@@H]1NC(=O)c1ccccc1 [f]
At neutral pH
  solubility kinetic at 18 h: 90.7 µM (≈ 26.9 µg/mL)
[1]
  solubility kinetic at 18 h: 79.07 ± 0.44 µM (≈ 23.4 µg/mL)

## Cc1ccccc1O[C@H]1CCCNCC[C@@H]1NC(=O)c1ccccc1 [g]
At neutral pH
  solubility kinetic at 18 h: 92.2 µM (≈ 31.2 µg/mL)
